biological target: T1, HCV polymerase (Hepatitis C virus genotype 1b, UniProt P26663); assay: HCV polymerase primer/template-directed transcription assay (32P-GTP incorporation, filter binding); assay type: biochemical; conditions: recombinant HCV polymerase; 30 minutes at 30° C.; concentration giving 50% inhibition of polymerase-directed transcription; read-out: IC50
T1 construct: 2.5 pmoles (0.15 μg) HCV polymerase protein in a final volume of 75 μL
Procedure, shortened: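 IC50s come from triplicate cpm, refit with an enzyme-concentration (30 nM) correction when under 200 nM. Reactions ran 30 min at 30° C in Tris pH 7.2 with MgCl2, 1 μM GTP spiked with α-32P-GTP, biotin-dG12 primer and poly(rC)300 template, with 1% DMSO. Incorporated label was collected on DE filtermats and counted.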

T1 sequence (P26663 2420-3010): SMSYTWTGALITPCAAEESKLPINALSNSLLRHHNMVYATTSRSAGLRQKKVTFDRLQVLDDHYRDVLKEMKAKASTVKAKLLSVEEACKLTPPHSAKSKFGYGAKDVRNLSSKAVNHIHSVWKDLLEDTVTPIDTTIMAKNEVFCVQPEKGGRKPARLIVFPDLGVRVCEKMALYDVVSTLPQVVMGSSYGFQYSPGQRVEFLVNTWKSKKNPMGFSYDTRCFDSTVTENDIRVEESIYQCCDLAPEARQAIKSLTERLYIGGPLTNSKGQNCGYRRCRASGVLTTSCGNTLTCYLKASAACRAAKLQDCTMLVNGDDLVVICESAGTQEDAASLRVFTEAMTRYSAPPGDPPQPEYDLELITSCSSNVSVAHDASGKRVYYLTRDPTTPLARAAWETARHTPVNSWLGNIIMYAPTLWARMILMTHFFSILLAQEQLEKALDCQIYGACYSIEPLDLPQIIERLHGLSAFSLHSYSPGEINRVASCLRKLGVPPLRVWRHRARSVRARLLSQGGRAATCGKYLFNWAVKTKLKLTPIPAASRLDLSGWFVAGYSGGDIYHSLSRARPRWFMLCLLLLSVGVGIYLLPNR

`COc1ccc(CCC2(C3CCCC3)CC(O)=C(Cc3nc4ccccc4c(=O)[nH]3)C(=O)O2)cc1Cl` (stereo not drawn) [B(55), 2-({6-[2-(3-Chloro-4-methoxyphenyl)ethyl]-6-cyclopentyl-4-hydroxy-2-oxo-5,6-dihydro-2H-pyran-3-yl}methyl)quinazolin-4(3H)-one] and `COc1ccc(CCC2(C3CCCC3)CC(O)=C(Cc3nc4ccsc4c(=O)[nH]3)C(=O)O2)cc1Cl` (stereo not drawn) [B(56), 2-({6-[2-(3-Chloro-4-methoxyphenyl)ethyl]-6-cyclopentyl-4-hydroxy-2-oxo-5,6-dihydro-2H-pyran-3-yl}methyl)thieno[3,2-d]pyrimidin-4(3H)-one] are within 1.5-fold of each other in IC50: 0.15 µM for the first, 0.1 µM for the second.

First: COc1ccc(CCC2(C3CCCC3)CC(O)=C(Cc3nc4cc(OC)c(OC)cc4c(=O)[nH]3)C(=O)O2)cc1Cl (stereo not drawn) [B(57), 2-({6-[2-(3-chloro-4-methoxyphenyl)ethyl]-6-cyclopentyl-4-hydroxy-2-oxo-5,6-dihydro-2H-pyran-3-yl}methyl)-6,7-dimethoxyquinazolin-4(3H)-one]
Second: COc1cc(OC)c(CCC2(C3CCCC3)CC(O)=C(Cc3nc4cc(OC)c(OC)cc4c(=O)[nH]3)C(=O)O2)cc1Cl (stereo not drawn) [B(63), 2-({6-[2-(5-Chloro-2,4-dimethoxyphenyl)ethyl]-6-cyclopentyl-4-hydroxy-2-oxo-5,6-dihydro-2H-pyran-3-yl}methyl)-6,7-dimethoxyquinazolin-4(3H)-one]
The IC50 of the first is 3.1-fold higher: 0.05 µM for the first, 0.016 µM for the second. The second is the more potent here.

Going from `Cc1csc2nc(CC3=C(O)CC(CCc4ccc(OCC5CC5)c(Cl)c4)(C4CCCC4)OC3=O)cc(=O)n12` (stereo not drawn) [B(58), 7-[(6-{2-[3-Chloro-4-(cyclopropylmethoxy)phenyl]ethyl}-6-cyclopentyl-4-hydroxy-2-oxo-5,6-dihydro-2H-pyran-3-yl)methyl]-3-methyl-5H-[1,3]thiazolo[3,2-a]pyrimidin-5-one] to `COc1ccc(CCC2(C3CCCC3)CC(O)=C(Cc3cc(=O)n4c(C)csc4n3)C(=O)O2)cc1` (stereo not drawn) [B(61), 7-({6-Cyclopentyl-4-hydroxy-6-[2-(4-methoxyphenyl)ethyl]-2-oxo-5,6-dihydro-2H-pyran-3-yl}methyl)-3-methyl-5H-[1,3]thiazolo[3,2-a]pyrimidin-5-one], the IC50 falls from 6.2 µM to 0.12 µM (52-fold). The second is the more potent here.

Compared with `COc1cc(OC)c(CCC2(C3CCCC3)CC(O)=C(Cc3cc(=O)n4c(C)csc4n3)C(=O)O2)cc1Cl` (stereo not drawn) [B(59), 7-({6-[2-(5-Chloro-2,4-dimethoxyphenyl)ethyl]-6-cyclopentyl-4-hydroxy-2-oxo-5,6-dihydro-2H-pyran-3-yl}methyl)-3-methyl-5H-[1,3]thiazolo[3,2-a]pyrimidin-5-one], `COc1cc(OC)c(CCC2(C3CCCC3)CC(O)=C(Cc3nc(C)cc(=O)[nH]3)C(=O)O2)cc1Cl` (stereo not drawn) [B(68), 2-({6-[2-(5-Chloro-2,4-dimethoxyphenyl)ethyl]-6-cyclopentyl-4-hydroxy-2-oxo-5,6-dihydro-2H-pyran-3-yl}methyl)-6-methylpyrimidin-4(3H)-one] is 17-fold higher in IC50: 0.006 µM for the first, 0.1 µM for the second.

First: COC(=O)Nc1cc(CC2=C(O)CC(CCc3ccc(OC)cc3)(C3CCCC3)OC2=O)on1 (stereo not drawn) [B(60), Methyl 5-({6-cyclopentyl-4-hydroxy-6-[2-(4-methoxyphenyl)ethyl]-2-oxo-5,6-dihydro-2H-pyran-3-yl}methyl)isoxazol-3-ylcarbamate]
Second: COC(=O)Nc1cc(CC2=C(O)CC(CCc3ccc(C(F)F)c(F)c3)(C3CCCC3)OC2=O)on1 (stereo not drawn) [B(72), Methyl 5-[(6-cyclopentyl-6-{2-[4-(difluoromethyl)-3-fluorophenyl]ethyl}-4-hydroxy-2-oxo-5,6-dihydro-2H-pyran-3-yl)methyl]isoxazol-3-ylcarbamate]
The IC50 of the first is 2.6-fold lower: 0.54 µM for the first, 1.4 µM for the second. The first is the more potent here.

Compared with `CCc1noc(CC2=C(O)CC(CCc3cc(Cl)c(OC)cc3OC)(C3CCCC3)OC2=O)n1` (stereo not drawn) [B(62), 6-[2-(5-Chloro-2,4-dimethoxyphenyl)ethyl]-6-cyclopentyl-3-[(3-ethyl-1,2,4-oxadiazol-5-yl)methyl]-4-hydroxy-5,6-dihydro-2H-pyran-2-one], `COc1cc(OC)c(CCC2(C3CCCC3)CC(O)=C(Cc3nc(-c4ccccn4)no3)C(=O)O2)cc1Cl` (stereo not drawn) [B(73), 6-[2-(5-Chloro-2,4-dimethoxyphenyl)ethyl]-6-cyclopentyl-4-hydroxy-3-[(3-pyridin-2-yl-1,2,4-oxadiazol-5-yl)methyl]-5,6-dihydro-2H-pyran-2-one] is 3.2-fold lower in IC50: 0.2 µM for the first, 0.062 µM for the second. The second is the more potent here.

First: COc1cc(OC)c(CCC2(C3CCCC3)CC(O)=C(Cc3nc4ccsc4c(=O)[nH]3)C(=O)O2)cc1Cl (stereo not drawn) [B(64), 2-({6-[2-(5-Chloro-2,4-dimethoxyphenyl)ethyl]-6-cyclopentyl-4-hydroxy-2-oxo-5,6-dihydro-2H-pyran-3-yl}methyl)thieno[3,2-d]pyrimidin-4(3H)-one]
Second: COc1cc(OC)c(CCC2(C3CCCC3)CC(O)=C(Cc3nc4ccccc4c(=O)[nH]3)C(=O)O2)cc1Cl (stereo not drawn) [B(65), 2-({6-[2-(5-Chloro-2,4-dimethoxyphenyl)ethyl]-6-cyclopentyl-4-hydroxy-2-oxo-5,6-dihydro-2H-pyran-3-yl}methyl)quinazolin-4(3H)-one]
The IC50 of the first is 3.3-fold lower: 0.033 µM for the first, 0.11 µM for the second. The first is the more potent here.

Compared with `COc1ccc(CCC2(C3CCCC3)CC(O)=C(Cc3cc(=O)[nH]c(-c4ccccn4)n3)C(=O)O2)cc1` (stereo not drawn) [B(66), 6-({6-Cyclopentyl-4-hydroxy-6-[2-(4-methoxyphenyl)ethyl]-2-oxo-5,6-dihydro-2H-pyran-3-yl}methyl)-2-pyridin-2-ylpyrimidin-4(3H)-one], `O=C1OC(CCc2ccc(OCc3ccccc3)cc2)(C2CCCC2)CC(O)=C1Cc1cc(=O)[nH]c(C2CC2)n1` (stereo not drawn) [B(67), 6-[(6-{2-[4-(Benzyloxy)phenyl]ethyl}-6-cyclopentyl-4-hydroxy-2-oxo-5,6-dihydro-2H-pyran-3-yl)methyl]-2-cyclopropylpyrimidin-4(3H)-one] is 15-fold higher in IC50: 0.22 µM for the first, 3.2 µM for the second.

Going from `Cc1nc(CC2=C(O)CC(CCc3ccc(C(F)F)c(F)c3)(C3CCCC3)OC2=O)n(C)n1` (stereo not drawn) [B(69), 6-Cyclopentyl-6-{2-[4-(difluoromethyl)-3-fluorophenyl]ethyl}-3-[(1,3-dimethyl-1H-1,2,4-triazol-5-yl)methyl]-4-hydroxy-5,6-dihydro-2H-pyran-2-one] to `Cc1nc(CC2=C(O)CC(CCc3ccc(OC(F)F)c(Cl)c3)(C3CCCC3)OC2=O)n(C)n1` (stereo not drawn) [B(74), 6-{2-[3-Chloro-4-(difluoromethoxy)phenyl]ethyl}-6-cyclopentyl-3-[(1,3-dimethyl-1H-1,2,4-triazol-5-yl)methyl]-4-hydroxy-5,6-dihydro-2H-pyran-2-one], the IC50 rises from 0.8 µM to 3.4 µM (4.2-fold).

First: Cc1nc(CC2=C(O)CC(CCc3ccc(OCC4CC4)c(Cl)c3)(C3CCCC3)OC2=O)n(C)n1 (stereo not drawn) [B(70), 6-{2-[3-Chloro-4-(cyclopropylmethoxy)phenyl]ethyl}-6-cyclopentyl-3-[(1.3-dimethyl-1H-1,2,4-triazol-5-yl)methyl]-4-hydroxy-5,6-dihydro-2H-pyran-2-one]
Second: COc1cc(OC)c(CCC2(C3CCCC3)CC(O)=C(Cc3nc(C)nn3C)C(=O)O2)cc1Cl (stereo not drawn) [B(71), 6-[2-(5-Chloro-2,4-dimethoxyphenyl)ethyl]-6-cyclopentyl-3-[(1,3-dimethyl-1H-1,2,4-triazol-5-yl)methyl]-4-hydroxy-5,6-dihydro-2H-pyran-2-one]
The IC50 of the first is 3-fold higher: 0.24 µM for the first, 0.08 µM for the second.

`Cc1cc(C)n2nc(CC3=C(O)CC(CCc4ccc(C(C)(C)C#N)c(F)c4)(C4CCCC4)OC3=O)nc2n1` (stereo not drawn) [B(75), 2-(4-{2-[2-Cyclopentyl-5-(5,7-dimethyl-[1,2,4]triazolo[1,5-a]pyrimidin-2-ylmethyl)-4-hydroxy-6-oxo-3,6-dihydro-2H-pyran-2-yl]-ethyl}-2-fluoro-phenyl)-2-methyl-propionitrile] showed an IC50 of 0.003 µM.

From patent US7473790B2 (Pfizer Inc., priority 2003, dated 2009)
